Data set [1] deals with human NOP receptor (NOP-RLuc/Gβ1-RGFP) (Homo sapiens, UniProt P41146). Kind of data set: biochemical. It counts as biochemical.
The target of data set [2] is T1, Mu receptor (CHOhMu) (Homo sapiens, UniProt P35372).
T1 construct: expressed in transfected cells; host or cells: CHO (Chinese Hamster Ovary)
The data set is described as follows: Displacement binding of [3H]-DPN, CHOhMu membranes. The following applies: SEM. How it is done:
(§1) In the radioligand displacement binding assays, homogenization/wash buffer consisting of 50 mM Tris-HCl pH to 7.4 with KOH, for CHOhMu, CHOhDelta and CHOhKappa or additional 5 mM MgSO4 for CHOhNOP was used. Homogenisation buffer (50 mM Tris and 0.2 mM EGTA pH 7.4 with NaOH) was used in GTPγ[^35S] assays. Membranes were centrifuged at 20374 g for 10 min at 4°C. This process was repeated at least three times. The resulting pellet was resuspended in an appropriate amount of the necessary buffer and the protein concentration was determined by Lowry assay.
(§2) Samples were incubated for 1 hr at room temperature and reactions were terminated by vacuum filtration, onto PEI-soaked Whatman GF/B filters, using a Brandel harvester.

Data set [3] concerns the target T2, human NOP receptor (NOP-RLuc/β-arrestin 2-RGFP) (Homo sapiens, UniProt P41146).
T2 construct: expressed in transfected cells; host or cells: HEK-293 (retroviral expression; whole cells)
The data set is described as follows: BRET NOP-RLuc/β-arrestin 2-RGFP interaction, HEK-293 cells. It counts as cell-based.

Data set [4] has as its target T3, human Mu receptor (Mu-RLuc/Gβ1-RGFP) (Homo sapiens, UniProt P35372).
T3 construct: expressed in transfected cells; host or cells: SH-SY5Y (retroviral expression; membranes used)
The data set is described as follows: BRET Mu-RLuc/Gβ1-RGFP interaction, SH-SY5Y membranes. It counts as biochemical.

Data set [5] deals with T4, Delta receptor (CHOhDelta) (Homo sapiens, UniProt P41143).
T4 construct: expressed in transfected cells; host or cells: CHO (Chinese Hamster Ovary)
T4 sequence (P41143 whole entry): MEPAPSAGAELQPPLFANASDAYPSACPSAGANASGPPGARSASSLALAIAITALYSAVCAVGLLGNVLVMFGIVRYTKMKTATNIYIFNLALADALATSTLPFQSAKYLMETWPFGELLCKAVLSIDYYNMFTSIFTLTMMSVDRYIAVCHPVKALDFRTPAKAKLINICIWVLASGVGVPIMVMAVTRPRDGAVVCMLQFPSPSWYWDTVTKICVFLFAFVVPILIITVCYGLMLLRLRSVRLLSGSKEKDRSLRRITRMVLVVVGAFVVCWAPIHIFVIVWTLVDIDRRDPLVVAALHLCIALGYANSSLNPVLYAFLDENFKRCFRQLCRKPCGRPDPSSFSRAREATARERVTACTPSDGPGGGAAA
Kind of data set: GTPγ[35S] binding, CHOhDelta membranes. It counts as biochemical. In general terms: Binding of GTPγS marks nucleotide exchange on a G protein.

The subject of a further data set is rats. The data set is described as follows: Rota-rod test after intrathecal infusion. It counts as in vivo, rat. The conditions noted are these: same range of doses (0.1–1 nmol), data not shown. How it is done: For all the experiments described below, male Sprague-Dawley rats (Harlan, Varese, Italy), weighing approximately 280-300g at the beginning of the experimental procedure, were used. Animals were housed in CeSAL (Centro Stabulazione Animali da Laboratorio, University of Florence) and used at least one week after their arrival. One rat was housed per cage (size 26x41 cm); animals were fed with standard laboratory diet and tap water ad libitum, and kept at 23±1°C with a 12 h light/dark cycle, light at 7 a.m. […] All animals were monitored daily using a scoring system (based on: Appearance, Food and Water Intake, Clinical Signs, Natural Behaviour and Provoked Behaviour. Maximum score is 20 and animals reaching 10 are euthanized. In the experiments reported here no animals reached this score and none died before the end of the experiment) and at the end of the experiment were euthanized by CO2 overdose. […]
Rota-rod apparatus (Ugo Basile, Varese, Italy) consisted of a base platform and a rotating rod with a diameter of 6 cm and a non-slippery surface. […] The integrity of motor coordination was assessed on the basis of the number of falls from the rod in 60s measured 15, 30, 45, 60, 90, 120 and 180 min after treatments.

Another data set deals with T5, human Mu receptor (Homo sapiens, UniProt P35372).
T5 construct: expressed in transfected cells; host or cells: CHO
T5 sequence (P35372 whole entry): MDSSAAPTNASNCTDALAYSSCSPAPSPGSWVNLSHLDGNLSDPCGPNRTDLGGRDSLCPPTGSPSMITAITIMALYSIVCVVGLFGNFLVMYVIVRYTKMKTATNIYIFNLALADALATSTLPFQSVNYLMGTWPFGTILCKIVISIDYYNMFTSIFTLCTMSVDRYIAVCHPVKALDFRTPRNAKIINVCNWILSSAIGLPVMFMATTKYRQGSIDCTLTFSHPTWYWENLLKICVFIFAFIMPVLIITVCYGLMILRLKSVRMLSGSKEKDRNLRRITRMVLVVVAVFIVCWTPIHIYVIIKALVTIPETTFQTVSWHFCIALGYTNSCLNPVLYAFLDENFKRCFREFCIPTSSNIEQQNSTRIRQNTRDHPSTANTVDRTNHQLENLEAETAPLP
The data set is described as follows: Calcium mobilisation, CHO cells with Mu and Gαqi5. It counts as cell-based. For orientation: Calcium flux is commonly read through the fluorescence of an indicator in the cells.

Data set [6] concerns the target T4, Delta receptor (CHOhDelta). The data set is described as follows: Displacement binding of [3H]-DPN, CHOhDelta membranes. The following applies: SEM. On the procedure: as §1, §2
The target in data set [7] is T6, NOP receptor (CHOhNOP) (Homo sapiens, UniProt P41146).
T6 construct: expressed in transfected cells; host or cells: CHO (Chinese Hamster Ovary)
T6 sequence (P41146 whole entry): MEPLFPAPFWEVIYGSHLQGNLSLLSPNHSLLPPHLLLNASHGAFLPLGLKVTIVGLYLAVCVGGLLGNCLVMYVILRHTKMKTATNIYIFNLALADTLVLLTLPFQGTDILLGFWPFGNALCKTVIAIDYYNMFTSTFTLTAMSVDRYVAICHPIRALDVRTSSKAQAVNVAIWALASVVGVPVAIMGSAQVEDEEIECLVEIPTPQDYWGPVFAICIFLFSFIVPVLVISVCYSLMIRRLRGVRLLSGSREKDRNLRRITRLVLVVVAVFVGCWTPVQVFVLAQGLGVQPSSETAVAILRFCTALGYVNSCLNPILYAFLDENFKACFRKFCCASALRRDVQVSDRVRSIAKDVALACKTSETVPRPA
Kind of data set: GTPγ[35S] binding, CHOhNOP membranes. It counts as biochemical.

Data set [8] addresses T6, NOP receptor (CHOhNOP). The data set is described as follows: Displacement binding of [3H]-UFP-101, CHOhNOP membranes. How it is done: as §1, §2
The target of data set [9] is T1, Mu receptor (CHOhMu). Kind of data set: GTPγ[35S] binding, CHOhMu membranes. It counts as biochemical.
In data set [10] the target is T7, Kappa receptor (CHOhKappa) (Homo sapiens, UniProt P41145).
T7 construct: expressed in transfected cells; host or cells: CHO (Chinese Hamster Ovary)
T7 sequence (P41145 whole entry): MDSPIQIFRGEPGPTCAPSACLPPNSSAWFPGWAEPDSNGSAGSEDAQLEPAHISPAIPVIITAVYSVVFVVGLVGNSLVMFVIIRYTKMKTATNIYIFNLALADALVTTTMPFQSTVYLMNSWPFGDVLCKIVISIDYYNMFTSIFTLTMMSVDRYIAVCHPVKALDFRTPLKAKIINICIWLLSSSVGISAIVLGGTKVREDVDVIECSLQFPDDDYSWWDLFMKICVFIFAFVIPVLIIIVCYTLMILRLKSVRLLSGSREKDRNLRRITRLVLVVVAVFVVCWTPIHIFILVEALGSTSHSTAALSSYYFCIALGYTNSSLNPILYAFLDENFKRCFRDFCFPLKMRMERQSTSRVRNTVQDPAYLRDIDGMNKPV
The data set is described as follows: Displacement binding of [3H]-DPN, CHOhKappa membranes. The following applies: SEM. On the procedure: as §1, §2

Data set [11] addresses T7, Kappa receptor (CHOhKappa). Kind of data set: GTPγ[35S] binding, CHOhKappa membranes. It counts as biochemical.
Data set [12] addresses T8, human Mu receptor (Mu-RLuc/β-arrestin 2-RGFP) (Homo sapiens, UniProt P35372).
T8 construct: expressed in transfected cells; host or cells: SH-SY5Y (retroviral expression; whole cells)
Kind of data set: BRET Mu-RLuc/β-arrestin 2-RGFP interaction, SH-SY5Y cells. It counts as cell-based.

For a further data set, the target named is T9, human NOP receptor (Homo sapiens, UniProt P41146).
T9 construct: expressed in transfected cells; host or cells: CHO
T9 sequence (P41146 whole entry): as the sequence (P41146 whole entry) above
The data set is described as follows: Calcium mobilisation, CHO cells with NOP and Gαqi5. It counts as cell-based.

T1 sequence (P35372 whole entry): as the sequence (P35372 whole entry) above
Chain of human NOP receptor (NOP-RLuc/Gβ1-RGFP) (P41146 whole entry, looked up): as the sequence (P41146 whole entry) above
T3 sequence (P35372 whole entry, looked up): as the sequence (P35372 whole entry) above
T8 sequence (P35372+P27652 fused): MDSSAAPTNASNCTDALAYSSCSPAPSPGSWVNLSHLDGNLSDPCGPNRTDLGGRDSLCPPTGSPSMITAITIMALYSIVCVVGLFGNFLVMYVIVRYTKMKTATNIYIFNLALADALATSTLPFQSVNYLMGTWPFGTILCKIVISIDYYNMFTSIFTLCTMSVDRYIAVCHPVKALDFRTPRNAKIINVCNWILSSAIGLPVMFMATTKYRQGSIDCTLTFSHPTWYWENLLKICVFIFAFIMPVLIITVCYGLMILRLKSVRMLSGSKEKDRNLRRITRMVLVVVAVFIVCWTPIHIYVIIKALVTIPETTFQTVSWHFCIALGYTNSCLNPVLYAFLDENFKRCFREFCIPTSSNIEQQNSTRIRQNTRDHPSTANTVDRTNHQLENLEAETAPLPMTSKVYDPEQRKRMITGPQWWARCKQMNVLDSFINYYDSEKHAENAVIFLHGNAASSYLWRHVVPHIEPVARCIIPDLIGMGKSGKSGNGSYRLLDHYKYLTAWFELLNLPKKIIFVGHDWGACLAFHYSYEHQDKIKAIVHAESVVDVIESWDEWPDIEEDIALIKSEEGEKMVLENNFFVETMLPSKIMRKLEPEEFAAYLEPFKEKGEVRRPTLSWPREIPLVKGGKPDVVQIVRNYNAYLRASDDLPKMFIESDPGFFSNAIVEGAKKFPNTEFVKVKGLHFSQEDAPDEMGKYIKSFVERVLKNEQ
T8 sequence (P32121 whole entry partner): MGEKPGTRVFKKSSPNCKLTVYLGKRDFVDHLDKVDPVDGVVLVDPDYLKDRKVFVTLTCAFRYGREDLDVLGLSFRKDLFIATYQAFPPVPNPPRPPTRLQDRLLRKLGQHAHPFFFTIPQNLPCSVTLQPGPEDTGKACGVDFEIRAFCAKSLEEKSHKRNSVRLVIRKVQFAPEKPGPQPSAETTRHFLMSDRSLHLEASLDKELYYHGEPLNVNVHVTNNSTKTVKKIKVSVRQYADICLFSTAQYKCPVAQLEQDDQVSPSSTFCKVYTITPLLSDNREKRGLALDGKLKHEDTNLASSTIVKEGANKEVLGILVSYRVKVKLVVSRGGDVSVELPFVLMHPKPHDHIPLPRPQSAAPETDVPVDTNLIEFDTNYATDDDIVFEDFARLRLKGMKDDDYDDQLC
T2 sequence (P41146+P27652 fused): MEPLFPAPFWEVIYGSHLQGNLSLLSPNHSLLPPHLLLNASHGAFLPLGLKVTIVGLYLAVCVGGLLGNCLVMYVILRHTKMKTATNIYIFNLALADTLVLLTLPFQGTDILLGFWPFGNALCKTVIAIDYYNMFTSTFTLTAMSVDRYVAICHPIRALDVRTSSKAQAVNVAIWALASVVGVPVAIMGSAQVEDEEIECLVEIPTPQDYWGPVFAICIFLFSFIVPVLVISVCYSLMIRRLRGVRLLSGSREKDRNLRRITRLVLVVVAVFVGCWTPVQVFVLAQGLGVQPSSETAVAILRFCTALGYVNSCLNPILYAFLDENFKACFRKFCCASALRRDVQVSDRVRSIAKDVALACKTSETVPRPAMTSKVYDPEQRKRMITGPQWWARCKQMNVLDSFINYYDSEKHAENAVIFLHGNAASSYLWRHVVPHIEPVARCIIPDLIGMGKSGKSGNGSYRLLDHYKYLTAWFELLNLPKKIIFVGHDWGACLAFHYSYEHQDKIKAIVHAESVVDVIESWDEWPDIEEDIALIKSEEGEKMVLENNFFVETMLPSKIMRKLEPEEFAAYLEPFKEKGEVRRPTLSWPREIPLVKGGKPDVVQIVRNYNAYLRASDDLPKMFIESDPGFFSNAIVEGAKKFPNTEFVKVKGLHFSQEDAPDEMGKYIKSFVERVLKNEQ
T2 sequence (P32121 whole entry partner): as the sequence (P32121 whole entry partner) above

Regarding `CC(C)C[C@H](NC(=O)[C@H](CCCCN)NC(=O)[C@H](CCCNC(=N)N)NC(=O)[C@H](C)NC(=O)[C@H](CO)NC(=O)[C@H](CCCCN)NC(=O)[C@H](CCCNC(=N)N)NC(=O)[C@H](C)NC(=O)CNC(=O)[C@@H](NC(=O)[C@H](Cc1ccccc1)NC(=O)CNC(=O)CNC(=O)[C@@H](N)Cc1ccccc1)[C@@H](C)O)C(=O)N[C@@H](C)C(=O)N[C@@H](CC(N)=O)C(=O)N[C@@H](CCC(N)=O)C(=O)N[C@@H](CSC1CC(=O)N(CCCC(=O)NCCCC[C@H](NC(=O)[C@H](CO)NC(=O)[C@@H]2CCCN2C(=O)[C@H](Cc2ccc(O)cc2)NC(=O)CNC(=O)[C@H](Cc2ccccc2)NC(=O)[C@@H](C)NC(=O)[C@@H](N)Cc2ccc(O)cc2)C(N)=O)C1=O)C(N)=O` (stereo partly drawn) [DeNo], the EC50 in data set [1] is 0.955 nM; in [3] it was 6.46 nM; in data set [4], 9.77 nM; in [5] it was 166 nM; on human Mu receptor, 67.6 nM; at NOP receptor (CHOhNOP) [7], 0.316 nM. Moreover, the EC50 on Mu receptor (CHOhMu) [9] was 17 nM; in data set [11], 1200 nM; in data set [12], 437 nM; at human NOP receptor it was 0.204 nM. The Ki was 0.282 nM at Mu receptor (CHOhMu) [2], 7.59 nM in data set [6], 0.0603 nM at NOP receptor (CHOhNOP) [8] (SEM) and 45.7 nM in data set [10]. For the same molecule, in the data set on rats, the “animal performance in the rotarod test” value was “impaired animal performance in the rotarod test”. Moreover, the Emax was 209 ± 15% at human Mu receptor (calcium mobilisation, % over basal fluorescence, CHO cells with human Mu and Gαqi5, at least 3 experiments in duplicate, SEM); 244 ± 6% on human NOP receptor (calcium mobilisation, % over basal fluorescence, CHO cells with human NOP and Gαqi5, at least 3 experiments in duplicate, SEM). Besides, the “NOP selectivity over Mu in binding” value at NOP receptor (CHOhNOP) [8] (from pKi values) is ~ 5 fold.

In general, EC50 refers to the concentration at which the effect is half-maximal. One may read the Ki as the equilibrium dissociation constant of an inhibitor or competing ligand from its target. Low readings indicate tighter binding, high ones weaker binding. One may read the Emax as the size of the effect at its maximum, as opposed to the concentration needed.
